In brackets after ≈: the same amount, converted by molar mass. Read-outs that look alike come from different tables or passages of the source.
Legend:
[1] = safety evaluation in the Phase I study; assay type: in vivo, human; conditions: single oral doses, healthy subjects
Excerpt: Treatment-emergent adverse events (TEAEs), serious adverse events (SAEs), vital signs, ECG measurements (triplicate), physical examination, standard laboratory evaluations.

TTR = conditions: cited from earlier work
[2] = solubility assessment of micronized tolcapone in buffers (HPLC assay and visual observation); assay type: physicochemical; conditions: for solubility at 1 h / solubility at 2 h: buffer, thermodynamic from solid
Protocol: Two aliquots of each sample were taken at 1 and 2 hour time points. One aliquot was used for Assay and Related Substances analysis by reverse phase HPLC and the other aliquot was used to obtain microscopic images using 5.5× magnification, polarised and non-polarised light. In addition, representative photograph of each n=1 sample at 1 hour time point were taken for information. pH of each sample was measured at 2 hour time point.

solubility (in words) ([2]; acidic conditions): poorly soluble | solubility (in words) ([2]; at about pH 6.8): improved solubility | solubility at 1 h ([2]; pH 2, aqueous buffer, pH 2.0, 1 Hour, replicates N=1, N=2, read-out: Assay (solubility by HPLC)): 23 µg/mL (≈ 84.2 µM) | solubility at 1 h ([2]; pH 2, aqueous buffer, pH 2.0, 1 Hour, read-out: Mean Assay (solubility by HPLC)): 20 µg/mL (≈ 73.2 µM) | solubility at 2 h ([2]; pH 2, aqueous buffer, pH 2.0, 2 Hour, replicates N=1, N=2, read-out: Assay (solubility by HPLC)): 20 µg/mL (≈ 73.2 µM) | solubility at 2 h ([2]; pH 2, aqueous buffer, pH 2.0, 2 Hour, read-out: Mean Assay (solubility by HPLC)): 21 µg/mL (≈ 76.9 µM) | solubility at 1 h ([2]; pH 4.5, aqueous buffer, pH 4.5, 1 Hour, replicates N=1, N=2, read-out: Assay (solubility by HPLC)): 45 µg/mL (≈ 165 µM) | solubility at 1 h ([2]; pH 4.5, aqueous buffer, pH 4.5, 1 Hour, read-out: Mean Assay (solubility by HPLC)): 45 µg/mL (≈ 165 µM) | solubility at 2 h ([2]; pH 4.5, aqueous buffer, pH 4.5, 2 Hour, replicates N=1, N=2, read-out: Assay (solubility by HPLC)): 52 µg/mL (≈ 190 µM) | solubility at 2 h ([2]; pH 4.5, aqueous buffer, pH 4.5, 2 Hour, read-out: Mean Assay (solubility by HPLC)): 51 µg/mL (≈ 187 µM) | solubility at 1 h ([2]; pH 5.5, aqueous buffer, pH 5.5, 1 Hour, replicates N=1, N=2, read-out: Assay (solubility by HPLC)): 258 µg/mL (≈ 944 µM) | solubility at 1 h ([2]; pH 5.5, aqueous buffer, pH 5.5, 1 Hour, read-out: Mean Assay (solubility by HPLC)): 248 µg/mL (≈ 908 µM) | solubility at 2 h ([2]; pH 5.5, aqueous buffer, pH 5.5, 2 Hour, replicates N=1, N=2, read-out: Assay (solubility by HPLC)): 283 µg/mL (≈ 1040 µM) | solubility at 2 h ([2]; pH 5.5, aqueous buffer, pH 5.5, 2 Hour, read-out: Mean Assay (solubility by HPLC)): 275 µg/mL (≈ 1010 µM) | solubility at 1 h ([2]; pH 6.8, aqueous buffer, pH 6.8, 1 Hour, replicates N=1, N=2, read-out: Assay (solubility by HPLC)): 920 µg/mL (≈ 3370 µM) | solubility at 1 h ([2]; pH 6.8, aqueous buffer, pH 6.8, 1 Hour, read-out: Mean Assay (solubility by HPLC)): 1280 µg/mL (≈ 4690 µM) | solubility at 2 h ([2]; pH 6.8, aqueous buffer, pH 6.8, 2 Hour, replicates N=1, N=2, read-out: Assay (solubility by HPLC)): 905 µg/mL (≈ 3310 µM) | solubility at 2 h ([2]; pH 6.8, aqueous buffer, pH 6.8, 2 Hour, read-out: Mean Assay (solubility by HPLC)): 1030 µg/mL (≈ 3780 µM) | solubility at 1 h ([2]; pH 7.4, aqueous buffer, pH 7.4, 1 Hour, replicates N=1, N=2, read-out: Assay (solubility by HPLC)): 473 µg/mL (≈ 1730 µM) | solubility at 1 h ([2]; pH 7.4, aqueous buffer, pH 7.4, 1 Hour, read-out: Mean Assay (solubility by HPLC)): 463 µg/mL (≈ 1690 µM) | solubility at 2 h ([2]; pH 7.4, aqueous buffer, pH 7.4, 2 Hour, replicates N=1, N=2, read-out: Assay (solubility by HPLC)): 489 µg/mL (≈ 1790 µM) | solubility at 2 h ([2]; pH 7.4, aqueous buffer, pH 7.4, 2 Hour, read-out: Mean Assay (solubility by HPLC)): 501 µg/mL (≈ 1830 µM) | Assay (solubility by HPLC) ([2]; pH 2.0, 1 Hour, replicates N=1, N=2): 18 µg/mL | Assay (solubility by HPLC) ([2]; pH 2.0, 2 Hour, replicates N=1, N=2): 23 µg/mL | Assay (solubility by HPLC) ([2]; pH 4.5, 2 Hour, replicates N=1, N=2): 51 µg/mL | Assay (solubility by HPLC) ([2]; pH 5.5, 1 Hour, replicates N=1, N=2): 237 µg/mL | Assay (solubility by HPLC) ([2]; pH 5.5, 2 Hour, replicates N=1, N=2): 267 µg/mL | Assay (solubility by HPLC) ([2]; pH 6.8, 1 Hour, replicates N=1, N=2): 1644 µg/mL | Assay (solubility by HPLC) ([2]; pH 6.8, 2 Hour, replicates N=1, N=2): 1163 µg/mL | Assay (solubility by HPLC) ([2]; pH 7.4, 1 Hour, replicates N=1, N=2): 452 µg/mL | Assay (solubility by HPLC) ([2]; pH 7.4, 2 Hour, replicates N=1, N=2): 513 µg/mL
SMILES: Cc1ccc(C(=O)c2cc(O)c(O)c([N+](=O)[O-])c2)cc1 [tolcapone]
safety and tolerability [1]: safe and well tolerated | overall mean increase in plasma TTR tetramer concentration (TTR; 100 mg three times daily 14 days then 200 mg three times daily 14 days, oral, hATTR-leptomeningeal patients, plasma): 55% | mean decrease of monomeric TTR concentration in CSF (TTR; same regimen, CSF, measured under semi-denaturing conditions): 48%

Source: US20260124146A1, “MODIFIED RELEASE TOLCAPONE FORMULATIONS” (Corino Therapeutics, Inc., priority 2022, published 2026)
